How the values were obtained:
L-1210 leukemia = experiment: In vivo therapy of mice inoculated intraperitoneally with L-1210 leukemia; parameters: species or system DBA/2 mice
[1] = system: MJY-alpha mammary tumor cells; experiment: Tumor cell survival after pulse treatment; assay type: cell-based, Mouse; settings: for Percent Tumor Cell Survival: viability 24 hr later
Protocol: (§1) MJY-alpha mammary tumor cell layers were initiated at 2×10^5 cells/2 cm^2 well (Nuncion Multidish 4, Vangard International, Neptune, NJ) using cells spontaneously released into the medium from confluent 6-8 day old cell layers. B-16 melanoma cells obtained from 4-day-old cell confluent cultures by trypsinization with STV were plated at 2.2×10^5 cells/cm^2 well. These seeding densities yielded lightly confluent layers (2.3-2.6×10^5 cell/cm^2). following treatment the layers were rinsed twice and reincubated with growth media: media were changed daily until the cultures were terminated.
(§2) Survival of tumor cell layers or suspensions was ascertained using 0.5% trypan blue in 0.1M phosphate-buffered saline, pH 7.25. Cell layers were released from the Multidish-4 wells with 0.5 ml STV, diluted 2 to 10 fold with the vital strain; tumor cells in suspension cultures were directly mixed 1:1 with the trypan blue dye. Tumor cells were enumerated using a haemocytometer; all 10 fields were counted for every sample. Percent viable cells was determined by direct comparison of the numbers of cells excluding trypan blue in treated cultures to those in untreated or diluent-treated parallel cultures. There were no significant differences in the viability of cells treated with diluent when compared to untreated cells.
(§3) To delineate the minimum concentration and duration of the tripeptide compound exposure to induce cytolysis, MJY-alpha and B-16 melanoma cell layers and L-1210 leukemia cell suspensions were exposed to 0.5 to 50 ug of the tripeptide compound per ml of solvent for 0.25 to 4 hours. The tripeptide compound was then removed and the cells washed and reincubated in media growth. Tumor cell viability was determined 24 hrs after pulse tripeptide compound exposure. Cell survival of all three tumor cell lines was reduced by an exposure period of as short as 15 min (Table 4). The degree of cytolysis increased with extension of the treatment periods from 15 min to 4 hrs, although the decreases in cell survival were not proportional to the duration of the exposure. […] Comparison of the data in Tables 2 and 4 reveal that cells exposed to the tripeptide compound for one hour were irreversibly damaged when assayed a day later despite their apparent viability immediately after treatment.
(§4) The reversibility of the cancericidal activity of the tripeptide compounds on L-1210 leukemia, MJY-alpha mammary tumor and B-16 melanoma cells was also monitored in the nonhostile tissue culture environment. Cell suspensions of these tumor models were treated with tripeptide for 15 to 240 min, washed and either inoculated into mice or maintained as suspension (L-1210) or monolayer cultures (MJY-alpha and B-16). Reductions in tumor cells survival were negligible (0-6%) in all three tumor systems at initiation of in vitro cultures following treatment with 50 ug tripeptide/ml for as long as 4 hrs. However, significant decreases in cellular viabilities of L-1210 leukemia (FIG. 9), MJY-alpha mammary tumor (FIG. 10) and B-16 melanoma (FIG. 11) tumor cells were observed 24 hr following tripeptide exposure and for the next 6 days.

B-16 melanoma cells = experiment: Tumor cell survival after pulse treatment; assay type: cell-based, Mouse; settings: for Percent Tumor Cell Survival: viability 24 hr later
Protocol: as §1, §2, §3, §4

[2] = system: MJY-alpha mammary tumor cells; experiment: Bioassay of tumorigenicity of in vitro treated tumor cells in syngeneic hosts; assay type: in vivo, BALB/c mice; settings: for MEAN SURVIVAL TIME (MST) of recipients: control 42
Excerpt: Suspensions of untreated and tripeptide treated MJY-alpha mammary tumor, B-16 melanoma, and L-1210 leukemia cells were adjusted to a concentration of 1×10^7 cells/ml based on the initial tumor cell concentration before the tripeptide exposure. Tumor cells were inoculated into syngeneic hosts at a concentration of 1×10^6 cells in […]. Female BALB/c/Crgl recipients of MJY-alpha mammary tumor cells and male C57BL/6/Jx hosts receiving B16 melanoma cells were inoculated subcutaneously; BDf1 mice were given intraperitoneal injections of L-1210 cells. Subcutaneous tumors were measured along their long and short axes every 1 to 3 days; tumor size is reported as the product of the two measurements (mm^2). The examination periods for mice receiving L-1210, MJY-alpha and B-16 tumor grafts were 45, 80, and 85 days, respectively. All mice were autopsied at the time of death or sacrifice.

B-95-8 B-lymphoma = experiment: Tumor cell survival (trypan blue), continuous exposure; assay type: cell-based, Marmorset
ALL (N cell leukemia) = experiment: Survival of fresh human leukemic cells, continuous exposure; assay type: cell-based; settings: for % tumor cell survival: ALL
[3] = single dose 10, 15, and 20 mg/kg 48 hours after inoculation
[4] = 50 ug/ml for as long as 4 hrs (all three tumor systems)

Question: What does the source list for `CCOC(=O)[C@H](CCSC)NC(=O)[C@H](Cc1cccc(N(CCCl)CCCl)c1)NC(=O)[C@@H](N)Cc1ccc(F)cc1.Cl` [PTT.119, 3-(p-fluorophenyl)-L-alanyl-3-[m-bis(2-chloroethyl)aminophenyl]-L-alanyl-L-methionine ethyl ester hydrochloride]?
Answer: mean survival time (L-1210 leukemia; single dose 10, 15, and 20 mg/kg 48 hours after 10^6 L-1210 cells i.p., from 8 days): 30 days; apparent cure, share of treated animals (L-1210 leukemia; [3]): 30%; increase of the mean survival time (L-1210 leukemia; [3]): 275%; Percent Tumor Cell Survival ([1]; 5 ug/ml, pulse 1 hr): 89%; Percent Tumor Cell Survival ([1]; 5 ug/ml, pulse 2 hr): 77%; Percent Tumor Cell Survival ([1]; 5 ug/ml, pulse 4 hr): 76%; Percent Tumor Cell Survival ([1]; 5 ug/ml, pulse .5 hr): 94%; Percent Tumor Cell Survival ([1]; 10 ug/ml, pulse 1 hr): 70%; Percent Tumor Cell Survival ([1]; 10 ug/ml, pulse 2 hr): 64%; Percent Tumor Cell Survival ([1]; 10 ug/ml, pulse 4 hr): 48%; Percent Tumor Cell Survival ([1]; 10 ug/ml, pulse .25 hr): 68%; Percent Tumor Cell Survival ([1]; 10 ug/ml, pulse .5 hr): 67%; Percent Tumor Cell Survival ([1]; 25 ug/ml, pulse 1 hr): 51%; Percent Tumor Cell Survival ([1]; 25 ug/ml, pulse 2 hr): 46%; Percent Tumor Cell Survival ([1]; 25 ug/ml, pulse 4 hr): 44%; Percent Tumor Cell Survival ([1]; 25 ug/ml, pulse .25 hr): 61%; Percent Tumor Cell Survival ([1]; 25 ug/ml, pulse .5 hr): 37%; reductions in tumor cell survival at initiation of in vitro cultures [1, 4]: 0-6%; Percent Tumor Cell Survival ([1]; 50 ug/ml, pulse 1 hr): 41%; Percent Tumor Cell Survival ([1]; 50 ug/ml, pulse .25 hr): 45%; Percent Tumor Cell Survival ([1]; 50 ug/ml, pulse .5 hr): 32%; Percent Tumor Cell Survival (B-16 melanoma cells; 5 ug/ml, pulse 1 hr): 88%; Percent Tumor Cell Survival (B-16 melanoma cells; 5 ug/ml, pulse 2 hr): 66%; Percent Tumor Cell Survival (B-16 melanoma cells; 5 ug/ml, pulse 4 hr): 79%; Percent Tumor Cell Survival (B-16 melanoma cells; 5 ug/ml, pulse .5 hr): 93%; Percent Tumor Cell Survival (B-16 melanoma cells; 10 ug/ml, pulse 1 hr): 68%; Percent Tumor Cell Survival (B-16 melanoma cells; 10 ug/ml, pulse 2 hr): 73%; Percent Tumor Cell Survival (B-16 melanoma cells; 10 ug/ml, pulse 4 hr): 63%; Percent Tumor Cell Survival (B-16 melanoma cells; 10 ug/ml, pulse .5 hr): 75%; Percent Tumor Cell Survival (B-16 melanoma cells; 25 ug/ml, pulse 1 hr): 60%; Percent Tumor Cell Survival (B-16 melanoma cells; 25 ug/ml, pulse 2 hr): 56%; Percent Tumor Cell Survival (B-16 melanoma cells; 25 ug/ml, pulse 4 hr): 52%; Percent Tumor Cell Survival (B-16 melanoma cells; 25 ug/ml, pulse .25 hr): 82%; Percent Tumor Cell Survival (B-16 melanoma cells; 25 ug/ml, pulse .5 hr): 67%; reductions in tumor cell survival at initiation of in vitro cultures (B-16 melanoma cells; [4]): 0-6%; Percent Tumor Cell Survival (B-16 melanoma cells; 50 ug/ml, pulse 1 hr): 48%; Percent Tumor Cell Survival (B-16 melanoma cells; 50 ug/ml, pulse .25 hr): 65%; Percent Tumor Cell Survival (B-16 melanoma cells; 50 ug/ml, pulse .5 hr): 62%; tumor growth in recipients ([2]; 10^6 MJY-alpha cells treated with 25 ug or higher for 30 to 240 min): complete absence of tumor growth; MEAN SURVIVAL TIME (MST) of recipients ([2]; MJY-alpha, 5 ug/ml, 60 min): 52 days; MEAN SURVIVAL TIME (MST) of recipients ([2]; MJY-alpha, 5 ug/ml, 120 min): 43 days; MEAN SURVIVAL TIME (MST) of recipients ([2]; MJY-alpha, 10 ug/ml, 30 min): 44 days; MEAN SURVIVAL TIME (MST) of recipients ([2]; MJY-alpha, 10 ug/ml, 60 min): 46 days; MEAN SURVIVAL TIME (MST) of recipients ([2]; MJY-alpha, 10 ug/ml, 120 min): 61 days; MEAN SURVIVAL TIME (MST) of recipients ([2]; MJY-alpha, 25 ug/ml, 30 min): 56 days; initial lag period between inoculation and appearance of palpable tumors ([2]; MJY-alpha, increasing dosages, 2 hr treatment): lengthened; reduction of viable tumor cell population ([2]; MJY-alpha, inferred from LD100 of 100 viable cells): at least 99.9%; tumor growth rates of untreated and treated cells ([2]; MJY-alpha, once graft established): identical; % tumor cell survival (B-95-8 B-lymphoma; 10 ug/ml, 1 hr): 100%; % tumor cell survival (B-95-8 B-lymphoma; 10 ug/ml, 4 hr): 100%; % tumor cell survival (B-95-8 B-lymphoma; 10 ug/ml, 24 hr): 40%; % tumor cell survival (B-95-8 B-lymphoma; 25 ug/ml, 1 hr): 100%; % tumor cell survival (B-95-8 B-lymphoma; 25 ug/ml, 4 hr): 86%; % tumor cell survival (B-95-8 B-lymphoma; 25 ug/ml, 8 hr): 49%; % tumor cell survival (B-95-8 B-lymphoma; 25 ug/ml, 24 hr): 20%; % tumor cell survival (B-95-8 B-lymphoma; 50 ug/ml, 1 hr): 77%; % tumor cell survival (B-95-8 B-lymphoma; 50 ug/ml, 4 hr): 42%; % tumor cell survival (B-95-8 B-lymphoma; 50 ug/ml, 8 hr): 26%; % tumor cell survival (B-95-8 B-lymphoma; 50 ug/ml, 24 hr): 6%; reduction of cell survival (ALL (N cell leukemia); ALL lymphoblasts, as low as 1 ug): 75%; % tumor cell survival (ALL (N cell leukemia); 1 ug/ml, 1 hr): 98%; % tumor cell survival (ALL (N cell leukemia); 1 ug/ml, 4 hr): 76%; % tumor cell survival (ALL (N cell leukemia); 1 ug/ml, 24 hr): 25%; % tumor cell survival (ALL (N cell leukemia); 5 ug/ml, 1 hr): 46%; % tumor cell survival (ALL (N cell leukemia); 5 ug/ml, 4 hr): 29%; % tumor cell survival (ALL (N cell leukemia); 5 ug/ml, 24 hr): 7%; % tumor cell survival (ALL (N cell leukemia); 10 ug/ml, 1 hr): 32%; % tumor cell survival (ALL (N cell leukemia); 10 ug/ml, 4 hr): 15%; % tumor cell survival (ALL (N cell leukemia); 10 ug/ml, 24 hr): 0%; % tumor cell survival (ALL (N cell leukemia); 25 ug/ml, 1 hr): 15%; % tumor cell survival (ALL (N cell leukemia); 25 ug/ml, 4 hr): 15%; % tumor cell survival (ALL (N cell leukemia); 25 ug/ml, 24 hr): 0%; % tumor cell survival (ALL (N cell leukemia); 50 ug/ml, 1 hr): 0%; % tumor cell survival (ALL (N cell leukemia); 50 ug/ml, 4 hr): 0%; % tumor cell survival (ALL (N cell leukemia); 50 ug/ml, 24 hr): 0%

From US4740501A (priority 1985, dated 1988)
